For one assay, the system named is UUO mice. The conditions noted are these: in LPA1 (−/−) mice renal fibrosis was significantly attenuated; cited from earlier work.
The test system of assay [1] is highly peritoneal metastatic pancreatic cancer cell line. The conditions noted are these: LPA-induced and ascites-induced; cited from earlier work.
Assay [2] relates to pancreatic cancer cell lines. The conditions noted are these: in response to LPA and peritoneal fluid (ascites) from pancreatic cancer patients; cited from earlier work.
The test system of assay [3] is human A2058 melanoma cells. The assay is described as follows: LPA1 chemotaxis assay. In kind it is cell-based. The conditions noted are these: 100 nM LPA, read-out: inhibition of LPA-driven chemotaxis IC50. Here is the method:
Chemotaxis of the A2058 human melanoma cells was measured using the Neuroprobe ChemoTx® System plates (8 μM pore size, 5.7 mm diameter sites). The filter sites were coated with 0.001% fibronectin (Sigma) in 20 mM Hepes, pH 7.4 and allowed to dry. A2058 cells were serum-starved for 24 hours, then harvested with Cell Stripper and resuspended in DMEM containing 0.1% fatty-acid-free bovine serum albumin (BSA) to a concentration of 1×10^6/ml. Cells were mixed with an equal volume of test compound (2×) in DMEM containing 0.1% fatty-acid-free BSA and incubated at 37° C. for 15 minutes. LPA (100 nM in DMEM containing 0.1% fatty-acid-free BSA) or vehicle was added to each well of the lower chamber and 50 μl of the cell suspension/test compound mix was applied to the upper portion of the ChemoTx plate. Plates were incubated at 37° C. for three hours and then the cells removed from the upper portion by rinsing with PBS and scraping. The filter was dried then stained with HEMA 3 Staining System (Fisher Scientific). The absorbance of the filter was read at 590 nm and IC50s were determined using Symyx Assay Explorer.

In a further assay the target is T1, Human LPA3 (Homo sapiens, UniProt Q9UBY5).
T1 construct: The full-length cDNA fragment for human LPA3 was obtained by PCR from the vector; expressed in transfected cells; cDNA from the Missouri S&T cDNA Resource Center
T1 sequence (Q9UBY5 1-353): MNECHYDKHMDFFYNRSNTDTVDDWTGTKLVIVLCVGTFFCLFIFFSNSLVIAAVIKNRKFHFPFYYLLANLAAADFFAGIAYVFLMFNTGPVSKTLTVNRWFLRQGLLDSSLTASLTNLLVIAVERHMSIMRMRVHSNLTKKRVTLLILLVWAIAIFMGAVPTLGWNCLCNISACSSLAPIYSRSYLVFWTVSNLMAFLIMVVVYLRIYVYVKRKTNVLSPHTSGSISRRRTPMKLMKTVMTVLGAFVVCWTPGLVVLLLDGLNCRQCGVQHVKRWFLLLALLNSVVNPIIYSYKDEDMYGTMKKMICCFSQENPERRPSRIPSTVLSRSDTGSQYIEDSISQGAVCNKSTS
The assay is described as follows: LPA3 calcium flux assay. In kind it is cell-based. The conditions noted are these: CHO cells expressing human LPA3, 10 nM LPA; read-out: HLPA3 Ca Flux IC50. Here is the method:
A vector containing the human LPA3 receptor cDNA was obtained from the Missouri S&T cDNA Resource Center (www.cdna.org). The full-length cDNA fragment for human LPA3 was obtained by PCR from the vector. The nucleotide sequence of the cloned human LPA3 was determined by sequencing and confirmed to be identical to the published human LPA3 sequence (NCBI accession number NM_012152). The cDNA was cloned into the pcDNA5/FRT expression plasmid and transfected in CHO cells using lipofectamine 2000 (Invitrogen Corp., USA). Clones stably expressing human LPA3 were selected using hygromycin and identified as cells that show Ca-influx in response to LPA.
(§1) Human LPA1 or LPA3 expressing CHO cells are seeded at 20,000-45,000 cells per well in a 96-well poly-D-lysine coated plate one or two days before the assay. Prior to the assay, the cells are washed once with PBS and then cultured in serum-free media overnight. On the day of the assay, a calcium indicator dye (Calcium 4, Molecular Devices) in assay buffer (HBSS with Ca^2+and Mg^2+ and containing 20 mM Hepes and 0.3% fatty-acid free human serum albumin) is added to each well and incubation continued for 1 hour at 37° C. 10 μl of test compounds in 2.5% DMSO are added to the cells and incubation continued at room temperature for 30 minutes. Cells are the stimulated by the addition of 10 nM LPA and intracellular Ca^2+ measured using the Flexstation 3 (Molecular Devices). IC50s are determined using Graphpad prism analysis of drug titration curves.
For orientation: Calcium assays in cells follow changes in intracellular calcium, usually with a dye or a luminescent sensor.

The target in the next assay is T2, Human LPA1 (Homo sapiens, UniProt Q92633).
T2 construct: the full-length cDNA for human LPA1 was obtained by PCR of the reverse transcription reaction; expressed in transfected cells
T2 sequence (Q92633 whole entry): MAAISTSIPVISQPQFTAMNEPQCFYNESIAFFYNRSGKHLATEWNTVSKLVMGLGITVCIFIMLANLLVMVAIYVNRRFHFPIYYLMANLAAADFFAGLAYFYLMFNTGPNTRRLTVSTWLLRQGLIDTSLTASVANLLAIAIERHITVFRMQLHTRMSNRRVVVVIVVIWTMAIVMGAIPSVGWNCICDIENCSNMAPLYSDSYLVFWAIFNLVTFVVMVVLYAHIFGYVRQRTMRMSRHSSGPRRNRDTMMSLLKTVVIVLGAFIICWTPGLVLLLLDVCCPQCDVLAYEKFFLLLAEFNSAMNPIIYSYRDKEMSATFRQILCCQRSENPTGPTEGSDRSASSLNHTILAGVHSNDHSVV
Put plainly: LPA1 calcium flux assay. In kind it is cell-based. As to conditions: CHO cells expressing human LPA1, 10 nM LPA; read-out: HLPA1 Ca Flux IC50. How it is done: A 1.1 kb cDNA encoding the human LPA1 receptor was cloned from human lung. Human lung RNA (Clontech Laboratories, Inc. USA) was reverse transcribed using the RETROscript kit (Ambion, Inc.) and the full-length cDNA for human LPA1 was obtained by PCR of the reverse transcription reaction. The nucleotide sequence of the cloned human LPA1 was determined by sequencing and confirmed to be identical to the published human LPA1 sequence (An et al. Biochem. Biophys. Res. Commun. 231:619 (1997). The cDNA was cloned into the pcDNA5/FRT expression plasmid and transfected in CHO cells using lipofectamine 2000 (Invitrogen Corp., USA). Clones stably expressing human LPA1 were selected using hygromycin and identified as cells that show Ca-influx in response to LPA.
as §1

Bounds are passed on as bounds.

As to `Cc1noc(-c2ccc(CSCCC(=O)O)cc2)c1NC(=O)OC(C)c1ccccc1Cl` (stereo not drawn) [Ki16425], in the assay with UUO mice, the “development of renal fibrosis” value is “closely resembled the LPA1 (−/−) mice”. The invasion activity result in assay [1] was “blocked”. For the same molecule, in assay [2], the in vitro migration result is recorded as “effectively blocked”.

`Cc1noc(-c2ccc(-c3ccc(C4(C(=O)O)CC4)cc3)cc2)c1NC(=O)O[C@H](C)c1ccccc1C#N` [Compound 19, 1-(4′-{4-[(R)-1-(2-Cyano-phenyl)-ethoxycarbonylamino]-3-methyl-isoxazol-5-yl}-biphenyl-4-yl)-cyclopropanecarboxylic acid]: the IC50 was below 100 nM in assay [3], 1000 to 10000 nM on Human LPA3 and below 300 nM on Human LPA1.

Turning to `Cc1noc(-c2ccc(-c3ccc(C4(C(=O)O)CC4)cc3)cc2)c1NC(=O)OC(C)C1=C(Cl)CCCC1` (stereo not drawn) [Compound 21, 1-(4′-{4-[1-(2-Chloro-cyclohex-1-enyl)-ethoxycarbonylamino]-3-methyl-isoxazol-5-yl}-biphenyl-4-yl)-cyclopropanecarboxylic acid], the IC50 is below 100 nM in assay [3], below 300 nM on Human LPA3 and below 300 nM on Human LPA1.

Broadly, the IC50 is the point on the concentration scale where inhibition reaches its midpoint.

(Values after patent US8273780B2, “Polycyclic antagonists of lysophosphatidic acid receptors” (Amira Pharmaceuticals, Inc., priority 2009, dated 2012).)
